According to patent US8802597B2, “Herbicidal pyrimidines” (E I du Pont de Nemours and Company, priority 2003, dated 2014):
Read-outs that look alike come from different tables or passages of the source.

What was measured:
Test in all cases: Test C pre/postemergence
Format in all cases: in vivo
[1] = system: eastern black nightshade (Solanum ptycanthum); conditions: Solanum, pre-emergence, Preemergence, scale 0 to 100, 0 no effect, 100 complete control, read-out: Plant response rating, Nightshade
In short: (§1)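 Percent control is a visual rating (0 none, 100 complete) taken against untreated plants after 12 to 14 days of greenhouse growth. Applications were made preemergence to seeded pots and postemergence to plants at the 1- to 4-leaf stage, in a non-phytotoxic surfactant-containing solvent.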

[2] = system: johnsongrass (Sorghum halepense); conditions: Sorghum halepense; for pest or weed control at 31 g/ha: 31 g ai/ha; for pest or weed control at 62 g/ha: 62 g ai/ha; for pest or weed control at 125 g/ha: 125 g ai/ha
In short: as §1

[3] = system: common (oilseed) sunflower (Helianthus annuus); conditions: Helianthus annuus, pre-emergence, Preemergence, scale 0 to 100, 0 no effect, 100 complete control, read-out: Plant response rating, Sunflower
In short: as §1

[4] = system: pigweed (Amaranthus retroflexus); conditions: Amaranthus retroflexus; for pest or weed control at 31 g/ha: 31 g ai/ha; for pest or weed control at 62 g/ha: 62 g ai/ha
In short: as §1

[5] = system: morningglory (Ipomoea coccinea); conditions: Ipomoea; for pest or weed control at 31 g/ha: 31 g ai/ha; for pest or weed control at 62 g/ha: 62 g ai/ha; for pest or weed control at 125 g/ha: 125 g ai/ha
In short: as §1

[6] = system: bermudagrass (Cynodon dactylon); conditions: Cynodon dactylon; for pest or weed control at 31 g/ha: 31 g ai/ha; for pest or weed control at 62 g/ha: 62 g ai/ha; for pest or weed control at 125 g/ha: 125 g ai/ha
In short: as §1

[7] = system: common ragweed (Ambrosia elatior); conditions: Ambrosia artemisiifolia, post-emergence, Postemergence
In short: as §1

[8] = post-emergence, Postemergence, read-out: Plant response rating (scale of 0 to 100), Johnsongrass
[9] = pre-emergence, Preemergence, scale 0 to 100, 0 no effect, 100 complete control, read-out: Plant response rating, Johnsongrass
[10] = post-emergence, Postemergence, read-out: Plant response rating (scale of 0 to 100), Pigweed
[11] = pre-emergence, Preemergence, scale 0 to 100, 0 no effect, 100 complete control, read-out: Plant response rating, Pigweed
[12] = post-emergence, Postemergence, read-out: Plant response rating (scale of 0 to 100), Morningglory
[13] = pre-emergence, Preemergence, scale 0 to 100, 0 no effect, 100 complete control, read-out: Plant response rating, Morningglory
[14] = post-emergence, Postemergence, scale 0 to 100 (0 no effect, 100 complete control), read-out: Bermudagrass plant response rating
[15] = pre-emergence, Preemergence, scale 0 to 100, 0 no effect, 100 complete control, read-out: Plant response rating, Bermudagrass

**Q.** `Nc1nc(C2CC2)nc(C(=O)OCc2ccccc2)c1Cl` [Compound 78, phenylmethyl 6-amino-5-chloro-2-cyclopropyl-4-pyrimidinecarboxylate] was tested. Which pest or weed control at 16 g/ha ([1]; 16 g ai/ha) did it give?
**A.** The pest or weed control at 16 g/ha was 0%.

**Q.** What about the pest or weed control at 31 g/ha ([1]; 31 g ai/ha) of the same molecule?
**A.** Its pest or weed control at 31 g/ha is 30%.

**Q.** What about the pest or weed control at 62 g/ha ([1]; 62 g ai/ha) of the same molecule?
**A.** Its pest or weed control at 62 g/ha is 60%.

**Q.** And the pest or weed control at 31 g/ha [2, 8]?
**A.** The pest or weed control at 31 g/ha was 10%.

**Q.** And the pest or weed control at 62 g/ha [2, 8]?
**A.** The pest or weed control at 62 g/ha was 10%.

**Q.** What about the pest or weed control at 125 g/ha ([2]; post-emergence, Postemergence, scale 0 to 100 (0 no effect, 100 complete control), read-out: Johnsongrass plant response rating) of the same molecule?
**A.** Its pest or weed control at 125 g/ha is 20%.

**Q.** And the pest or weed control at 250 g/ha ([2]; post-emergence, Postemergence, 250 g ai/ha, scale 0 to 100, read-out: Plant response rating, Johnsongrass)?
**A.** The pest or weed control at 250 g/ha was 40%.

**Q.** And the pest or weed control at 16 g/ha ([2]; pre-emergence, Preemergence, 16 g ai/ha, scale 0 to 100, 0 no effect, 100 complete control, read-out: Plant response rating, Johnsongrass)?
**A.** Its pest or weed control at 16 g/ha is 0%.

**Q.** What about the pest or weed control at 31 g/ha [2, 9] of the same molecule?
**A.** The pest or weed control at 31 g/ha was 10%.

**Q.** And the pest or weed control at 62 g/ha [2, 9]?
**A.** Its pest or weed control at 62 g/ha is 20%.

**Q.** And the pest or weed control at 125 g/ha ([2]; pre-emergence, Preemergence, scale 0 to 100, read-out: Plant response rating, Johnsongrass)?
**A.** Its pest or weed control at 125 g/ha is 50%.

**Q.** And the pest or weed control at 16 g/ha ([3]; 16 g ai/ha)?
**A.** Its pest or weed control at 16 g/ha is 50%.

**Q.** What about the pest or weed control at 31 g/ha ([3]; 31 g ai/ha) of the same molecule?
**A.** The pest or weed control at 31 g/ha was 70%.

**Q.** And the pest or weed control at 62 g/ha ([3]; 62 g ai/ha)?
**A.** Its pest or weed control at 62 g/ha is 100%.

**Q.** And the pest or weed control at 31 g/ha [4, 10]?
**A.** Its pest or weed control at 31 g/ha is 50%.

**Q.** What about the pest or weed control at 62 g/ha [4, 10] of the same molecule?
**A.** Its pest or weed control at 62 g/ha is 80%.

**Q.** What about the pest or weed control at 125 g/ha ([4]; post-emergence, Postemergence, 125 g ai/ha, scale 0 to 100 (0 no effect, 100 complete control), read-out: Pigweed plant response rating) of the same molecule?
**A.** Its pest or weed control at 125 g/ha is 95%.

**Q.** What about the pest or weed control at 250 g/ha ([4]; post-emergence, Postemergence, 250 g ai/ha, scale 0 to 100, read-out: Plant response rating, Pigweed) of the same molecule?
**A.** The pest or weed control at 250 g/ha was 100%.

**Q.** And the pest or weed control at 16 g/ha ([4]; pre-emergence, Preemergence, 16 g ai/ha, scale 0 to 100, 0 no effect, 100 complete control, read-out: Plant response rating, Pigweed)?
**A.** The pest or weed control at 16 g/ha was 55%.

**Q.** What about the pest or weed control at 31 g/ha [4, 11] of the same molecule?
**A.** Its pest or weed control at 31 g/ha is 60%.

**Q.** And the pest or weed control at 62 g/ha [4, 11]?
**A.** The pest or weed control at 62 g/ha was 70%.

**Q.** And the pest or weed control at 31 g/ha [5, 12]?
**A.** The pest or weed control at 31 g/ha was 90%.

**Q.** And the pest or weed control at 62 g/ha [5, 12]?
**A.** Its pest or weed control at 62 g/ha is 90%.

**Q.** What about the pest or weed control at 125 g/ha ([5]; post-emergence, Postemergence, scale 0 to 100 (0 no effect, 100 complete control), read-out: Morningglory plant response rating) of the same molecule?
**A.** Its pest or weed control at 125 g/ha is 100%.

**Q.** And the pest or weed control at 250 g/ha ([5]; post-emergence, Postemergence, 250 g ai/ha, scale 0 to 100, read-out: Plant response rating, Morningglory)?
**A.** Its pest or weed control at 250 g/ha is 100%.

**Q.** What about the pest or weed control at 16 g/ha ([5]; pre-emergence, Preemergence, 16 g ai/ha, scale 0 to 100, 0 no effect, 100 complete control, read-out: Plant response rating, Morningglory) of the same molecule?
**A.** The pest or weed control at 16 g/ha was 0%.

**Q.** And the pest or weed control at 31 g/ha [5, 13]?
**A.** The pest or weed control at 31 g/ha was 70%.

**Q.** And the pest or weed control at 62 g/ha [5, 13]?
**A.** The pest or weed control at 62 g/ha was 85%.

**Q.** What about the pest or weed control at 125 g/ha ([5]; pre-emergence, Preemergence, scale 0 to 100, read-out: Plant response rating, Morningglory) of the same molecule?
**A.** Its pest or weed control at 125 g/ha is 100%.

**Q.** And the pest or weed control at 31 g/ha ([6]; post-emergence, Postemergence, read-out: Plant response rating (scale of 0 to 100), Bermudagrass)?
**A.** The pest or weed control at 31 g/ha was 60%.

**Q.** And the pest or weed control at 62 g/ha [6, 14]?
**A.** Its pest or weed control at 62 g/ha is 60%.

**Q.** What about the pest or weed control at 125 g/ha [6, 14] of the same molecule?
**A.** The pest or weed control at 125 g/ha was 60%.

**Q.** And the pest or weed control at 250 g/ha ([6]; post-emergence, Postemergence, 250 g ai/ha, scale 0 to 100, read-out: Plant response rating, Bermudagrass)?
**A.** Its pest or weed control at 250 g/ha is 65%.

**Q.** And the pest or weed control at 16 g/ha ([6]; pre-emergence, Preemergence, 16 g ai/ha, scale 0 to 100, 0 no effect, 100 complete control, read-out: Plant response rating, Bermudagrass)?
**A.** The pest or weed control at 16 g/ha was 0%.

**Q.** And the pest or weed control at 31 g/ha [6, 15]?
**A.** Its pest or weed control at 31 g/ha is 0%.

**Q.** And the pest or weed control at 62 g/ha [6, 15]?
**A.** The pest or weed control at 62 g/ha was 0%.

**Q.** What about the pest or weed control at 125 g/ha ([6]; pre-emergence, Preemergence, scale 0 to 100, read-out: Plant response rating, Bermudagrass) of the same molecule?
**A.** Its pest or weed control at 125 g/ha is 20%.

**Q.** What about the pest or weed control at 31 g/ha ([7]; 31 g ai/ha, read-out: Plant response rating (scale of 0 to 100), Ragweed) of the same molecule?
**A.** Its pest or weed control at 31 g/ha is 70%.

**Q.** What about the pest or weed control at 62 g/ha ([7]; 62 g ai/ha, read-out: Plant response rating (scale of 0 to 100), Ragweed) of the same molecule?
**A.** Its pest or weed control at 62 g/ha is 85%.

**Q.** And the pest or weed control at 125 g/ha ([7]; 125 g ai/ha, scale 0 to 100 (0 no effect, 100 complete control), read-out: Ragweed plant response rating)?
**A.** Its pest or weed control at 125 g/ha is 95%.

**Q.** And the pest or weed control at 250 g/ha ([7]; 250 g ai/ha, scale 0 to 100, read-out: Plant response rating, Ragweed)?
**A.** The pest or weed control at 250 g/ha was 100%.
